# Experimental data as given in ChEMBL document CHEMBL1142815, “Influence of acid surrogates toward potency of VLA-4 antagonist” (Bioorg Med Chem Lett, 2005).
# What was measured:
# Integrin alpha-4/beta-1 [1] = target: T1, Integrin alpha-4/beta-1 (Homo sapiens, UniProt P05556+P13612); experiment: Percentage binding to VLA-4 receptor of Jurkat cells; assay type: cell-based
# [2] = Plasma clearance in rat upon intravenous administration of 5 mg/kg; assay type: ADME, organism-based; parameters: dose 5 mg/kg, route intravenous
# [3] = Maximum concentration in rat plasma upon peroral administration of 5 mg/kg; assay type: ADME, organism-based; parameters: dose 5 mg/kg, route oral; conditions: po
# [4] = Half-life in rat upon intravenous administration of 5 mg/kg; assay type: ADME, organism-based; parameters: dose 5 mg/kg, route intravenous; conditions: in vivo
# [5] = Area under plasma concentration curve in rat upon intravenous administration of 5 mg/kg; assay type: ADME, organism-based; parameters: dose 5 mg/kg, route intravenous
# [6] = Volume of distribution of compound in rat plasma upon intravenous administration of 5 mg/kg; assay type: ADME, organism-based; parameters: dose 5 mg/kg, route intravenous
# Integrin alpha-4/beta-1 [7] = target: T1, Integrin alpha-4/beta-1; experiment: Inhibition of VLA-4 receptor of Jurkat cells in BURJ assay; assay type: cell-based
# [8] = Oral bioavailability in rat upon oral administration of 5 mg/kg; conditions: in vivo
# T1 sequence (P05556 whole entry): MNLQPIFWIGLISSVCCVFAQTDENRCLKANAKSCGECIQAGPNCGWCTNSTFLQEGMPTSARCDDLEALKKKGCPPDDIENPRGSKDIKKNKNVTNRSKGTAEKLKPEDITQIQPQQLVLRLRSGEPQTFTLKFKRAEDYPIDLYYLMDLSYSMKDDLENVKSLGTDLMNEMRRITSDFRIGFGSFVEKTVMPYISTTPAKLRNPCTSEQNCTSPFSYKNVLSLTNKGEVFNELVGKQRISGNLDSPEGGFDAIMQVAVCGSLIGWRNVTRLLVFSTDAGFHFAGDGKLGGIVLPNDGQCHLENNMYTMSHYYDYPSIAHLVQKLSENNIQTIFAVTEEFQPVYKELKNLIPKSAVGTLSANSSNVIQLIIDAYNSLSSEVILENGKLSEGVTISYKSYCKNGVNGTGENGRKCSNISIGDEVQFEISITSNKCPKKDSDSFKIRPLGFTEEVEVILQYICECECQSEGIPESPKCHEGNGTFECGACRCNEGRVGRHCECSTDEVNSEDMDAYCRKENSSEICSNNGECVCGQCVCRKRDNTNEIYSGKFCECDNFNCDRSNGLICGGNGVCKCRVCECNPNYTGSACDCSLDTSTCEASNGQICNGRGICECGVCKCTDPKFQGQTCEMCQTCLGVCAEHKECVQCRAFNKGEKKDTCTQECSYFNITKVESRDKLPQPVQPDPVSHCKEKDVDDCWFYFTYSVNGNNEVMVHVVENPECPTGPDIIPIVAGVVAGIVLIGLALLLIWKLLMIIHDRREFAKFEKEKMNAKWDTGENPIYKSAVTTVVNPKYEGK
# T1 sequence (P13612 whole entry): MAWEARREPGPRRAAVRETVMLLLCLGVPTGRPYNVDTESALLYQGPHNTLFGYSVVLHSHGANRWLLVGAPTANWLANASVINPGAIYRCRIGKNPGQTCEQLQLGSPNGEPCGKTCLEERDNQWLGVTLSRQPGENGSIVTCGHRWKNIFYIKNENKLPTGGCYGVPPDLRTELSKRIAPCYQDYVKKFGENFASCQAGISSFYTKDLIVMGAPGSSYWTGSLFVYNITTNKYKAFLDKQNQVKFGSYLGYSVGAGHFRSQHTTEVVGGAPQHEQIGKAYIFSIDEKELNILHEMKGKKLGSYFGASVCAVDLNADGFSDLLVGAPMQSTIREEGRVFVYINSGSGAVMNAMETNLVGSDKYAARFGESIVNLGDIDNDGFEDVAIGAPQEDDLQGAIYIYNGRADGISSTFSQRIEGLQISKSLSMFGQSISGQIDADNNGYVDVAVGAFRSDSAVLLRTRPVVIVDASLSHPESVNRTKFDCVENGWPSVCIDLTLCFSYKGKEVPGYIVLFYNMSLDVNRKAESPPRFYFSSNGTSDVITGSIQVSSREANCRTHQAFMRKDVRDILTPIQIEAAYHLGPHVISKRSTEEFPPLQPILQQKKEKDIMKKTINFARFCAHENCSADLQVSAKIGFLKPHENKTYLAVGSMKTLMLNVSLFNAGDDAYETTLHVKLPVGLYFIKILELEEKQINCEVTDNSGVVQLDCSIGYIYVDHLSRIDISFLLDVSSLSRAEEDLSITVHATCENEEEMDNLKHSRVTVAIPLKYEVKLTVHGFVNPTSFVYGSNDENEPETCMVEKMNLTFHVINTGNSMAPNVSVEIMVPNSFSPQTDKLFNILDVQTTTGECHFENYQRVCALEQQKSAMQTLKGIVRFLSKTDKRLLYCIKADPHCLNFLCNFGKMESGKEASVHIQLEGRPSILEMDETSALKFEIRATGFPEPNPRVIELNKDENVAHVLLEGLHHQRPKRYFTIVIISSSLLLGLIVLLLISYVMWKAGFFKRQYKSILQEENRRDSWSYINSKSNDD
SMILES,Percent binding to VLA-4 (Integrin alpha-4/beta-1 [1]) [%],clearance [2] [L/h/kg],Cmax [3] [nM],half-life [4] [h],AUC [5] [nM·h],Vd [6] [L/kg],IC50 (Integrin alpha-4/beta-1 [7]) [nM],bioavailability [8] [%]
O=C(Nc1ccc(C[C@H](NC(=O)[C@@H]2CCCN2S(=O)(=O)c2cc(Cl)cc(Cl)c2)C(=O)O)cc1)c1c(Cl)cncc1Cl,66,2.29,3.14,0.72,680,0.57,0.03,–
O=C(Nc1ccc(C[C@H](NC(=O)[C@@H]2CCCN2S(=O)(=O)c2cc(Cl)cc(Cl)c2)C(=O)NC(=O)C(F)(F)F)cc1)c1c(Cl)cncc1Cl,0,–,–,–,–,–,10,–
O=C(Nc1ccc(C[C@H](NC(=O)[C@@H]2CCCN2S(=O)(=O)c2cc(Cl)cc(Cl)c2)c2cc(O)[nH]n2)cc1)c1c(Cl)cncc1Cl,6,–,–,–,–,–,300,–
O=C(Nc1ccc(C[C@H](NC(=O)[C@@H]2CCCN2S(=O)(=O)c2cc(Cl)cc(Cl)c2)c2nnn[nH]2)cc1)c1c(Cl)cncc1Cl,0,–,–,–,–,–,60,–
COc1cccc(OC)c1-c1ccc(C[C@@H](Cn2oc(=O)[nH]c2=O)NC(=O)[C@@H]2CCCN2S(=O)(=O)c2cc(Cl)cc(Cl)c2)cc1,–,–,–,–,–,–,6000,–
O=C(Nc1ccc(C[C@H](NC(=O)[C@@H]2CCCN2S(=O)(=O)c2cc(Cl)cc(Cl)c2)c2cc(=O)[nH]o2)cc1)c1c(Cl)cncc1Cl,–,2.25,–,2.85,3510,1.25,20,–

# Next, values leading:
Percent binding to VLA-4 (Integrin alpha-4/beta-1 [1]) [%],clearance [2] [L/h/kg],Cmax [3] [nM],half-life [4] [h],AUC [5] [nM·h],Vd [6] [L/kg],IC50 (Integrin alpha-4/beta-1 [7]) [nM],bioavailability [8] [%],SMILES
8,–,–,–,–,–,–,–,O=C(Nc1ccc(C[C@H](NC(=O)[C@@H]2CCCN2S(=O)(=O)c2cc(Cl)cc(Cl)c2)c2cc(O)no2)cc1)c1c(Cl)cncc1Cl
0,–,–,–,–,–,11,–,O=C(Nc1ccc(C[C@H](NC(=O)[C@@H]2CCCN2S(=O)(=O)c2cc(Cl)cc(Cl)c2)C(=O)NS(=O)(=O)C(F)(F)F)cc1)c1c(Cl)cncc1Cl
0,3.6,6.1,2.78,2010,2.61,12,0.19,O=C(Nc1ccc(C[C@H](NC(=O)[C@@H]2CCCN2S(=O)(=O)c2cc(Cl)cc(Cl)c2)c2noc(O)n2)cc1)c1c(Cl)cncc1Cl
10,–,–,–,–,–,13,–,CCOC(=O)CC(=O)[C@H](Cc1ccc(NC(=O)c2c(Cl)cncc2Cl)cc1)NC(=O)[C@@H]1CCCN1S(=O)(=O)c1cc(Cl)cc(Cl)c1
